Assays:
MARK4 [1] = target: T1, MARK4 (Homo sapiens, UniProt Q96L34); assay: Steady-state fluorescence quenching binding studies; details: for Kq (bimolecular quenching rate constant): Kq=Ksv/τ0; for ∆G: van't Hoff equation
T1 construct: made in house
T1 sequence (Q96L34 1-752): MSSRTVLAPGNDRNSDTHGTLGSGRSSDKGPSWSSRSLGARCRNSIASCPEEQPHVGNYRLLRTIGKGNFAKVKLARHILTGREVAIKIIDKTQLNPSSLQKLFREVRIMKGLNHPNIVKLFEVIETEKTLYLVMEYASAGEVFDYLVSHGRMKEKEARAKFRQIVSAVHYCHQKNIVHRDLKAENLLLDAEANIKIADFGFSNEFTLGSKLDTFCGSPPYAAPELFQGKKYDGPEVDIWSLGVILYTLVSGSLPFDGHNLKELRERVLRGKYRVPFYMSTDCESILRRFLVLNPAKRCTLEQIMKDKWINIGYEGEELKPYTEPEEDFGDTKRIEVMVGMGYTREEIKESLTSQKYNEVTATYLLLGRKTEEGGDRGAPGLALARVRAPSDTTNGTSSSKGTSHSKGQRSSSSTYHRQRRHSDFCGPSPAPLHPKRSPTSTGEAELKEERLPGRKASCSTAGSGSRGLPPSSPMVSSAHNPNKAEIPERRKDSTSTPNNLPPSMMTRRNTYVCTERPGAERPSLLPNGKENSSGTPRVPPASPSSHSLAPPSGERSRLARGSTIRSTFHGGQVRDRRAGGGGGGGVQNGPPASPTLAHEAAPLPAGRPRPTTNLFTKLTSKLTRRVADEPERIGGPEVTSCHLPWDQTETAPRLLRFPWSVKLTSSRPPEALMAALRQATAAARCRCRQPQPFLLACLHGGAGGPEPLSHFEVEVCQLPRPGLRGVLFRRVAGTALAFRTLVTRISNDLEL
Procedure: Fluorescence quenching experiments were carried out on Jasco FP-6200 spectrofluorometer attached with an external water bath which serves as a temperature controller. The experiment was carried out at three different temperatures in triplicates. The protein concentration was kept constant at 4 µM while the ligand was titrated in the ratio of 1:9 at all three temperatures (288 K, 298 K, and 305 K). The fluorescence intensities were corrected for the inner filter effect according to Chi & Liu, 2011[57] the following equation:1 Fcorrected=Fobservede^(Aex+Aobs)/2
Aex and Aobs are the absorption of the system at excitation and emission wavelengths, respectively. The fluorescence intensities were corrected after taking filter effect into account and all the reported spectra are the subtracted spectra taking fluorescence of ligand alone. Fluorescence quenching data was further analyzed employing Stern-Volmer, modified Stern-Volmer and van’t Hoff equation.
To analyze the quenching data, Stern Volmer equation (Eq. 2) was deployed to find the Stern-Volmer constant:2 F0/F=1+Ksv[C] where F0 & F are fluorescence intensity of MARK4 in the absence and presence of RA, [C] is the concentration of RA. Ksv refers to Stern–Volmer constant.
The Ksv value decreases with increasing temperature for static quenching while the opposite effect is observed for dynamic quenching. […] Thus, we can say that the MARK4-RA complex formation is driven by the dynamic mode of quenching. The mode of quenching was further confirmed from the value of bimolecular quenching rate constant, Kq, which was calculated as per Eq. 33 Kq=Ksv/τ0 τo refers to the average integral fluorescence lifetime of tryptophan and is reported to be 2.7 × 10^-9 s.
Further, decrease in fluorescence in the presence of RA was analyzed by modified Stern-Volmer equation (Eq. 4)[63],[64].4 logF0−F/F=logK+nlog[C]
Using van’t Hoff equation (Eq. 5)[65], thermodynamic parameters for ligand-protein interaction such as Gibbs free energy change (∆G), enthalpy change (∆H) and entropy change (∆S) can be calculated.5 ΔG=−RTLnK=ΔH−TΔS K is the binding constant, ∆H is enthalpy change, ∆G is Gibbs free energy change, ∆S is entropy change, and R is the universal gas constant (1.987 cal mol^−1 K^−1). The experimental fitting of data as per Eq. 5 is shown in Fig. 6C […]. The slope of this plot gives the value of -∆H/R, and the intercept giving the value of ∆S/R.“T”.

MARK4 [2] = target: T1, MARK4; assay: Isothermal titration calorimetry; type: binding
Procedure: ITC measurements were done at 25 °C on a VP-ITC microcalorimeter from MicroCal, Inc (GE, MicroCal, USA). The first injection was a false one of 2 s with other injections set at 10 s. The sample cell was filled with MARK4 with reference cell with a reference buffer and a syringe containing 500 µM RA was titrated into MARK4. MicroCal Origin 8.0 was used to analyze the obtained data.

MARK4 [3] = target: T1, MARK4; assay: ATPase enzyme inhibition assay (malachite green); type: biochemical; details: RA 0–18 µM, ATP 200 µM, MARK4 4 µM, 25 °C, 1 hour
Procedure: To see the inhibitory effect of RA on MARK4, an ATPase assay was carried out in the presence of increasing concentrations of RA. Freshly prepared ATP (200 µM) was added to MARK4 (4 µM) and final reaction mixture of 100 μl was incubated at 25 °C for 1 hour. Malachite green (200 μl) was further added to the reaction mixture to stop the reaction followed by incubation of samples at room temperature for 20–25 minutes for the development of color. From the final reaction mixture, 100 μl was transferred to a 96-well plate in triplicates to measure spectrophotometrically at 620 nm.

phosphorylation of tau = assay: Tau-phosphorylation assay (flow cytometry); type: cell-based, human; details: SH-SY5Y cells, IC50 and 2 × IC50 doses, 48 h, vs untreated cells
Procedure: To see the effect of RA treatment on the activity of MARK4, Tau-phosphorylation studies were performed as per the previously published protocol. Briefly, SH-SY5Y cells were incubated with IC50 and 2 × IC50 doses of RA. Approximately, 10^6 cells were collected after 48 h treatment, washed with PBS, fixed and incubated with anti-tau antibodies at 25 °C for 2–4 hrs. Following the incubation, cells were washed and analyzed by flow cytometry.

MDA-MB-231 cells [4] = assay: MTT cell viability, MDA-MB-231; type: cell-based, human; details: MDA-MB-231, 0–200 μM, 72 h
A549 cells = assay: MTT cell viability, A549; type: cell-based, human; details: A549, 0–200 μM, 72 h
Procedure: The cytotoxicity studies of selected synthesized compounds were accessed using standard MTT assay[16],[58],[59]. Briefly, 5000–6000 cells/well were plated in 96-well cell culture plate and next day cells were treated with selected compounds (0–200 μM) for 72 h. After 72 h incubation, the culture medium was removed and after washing with phosphate buffer saline (pH 7.4) cells were incubated with MTT solution (a mixture of 100 µl in complete medium and 25 µl of MTT solution taken from 5 mg/ml stock), at 37 °C in the CO2 incubator. Afterward, the resultant formazan crystals were dissolved in 150–200 µl of DMSO and the absorbance of the reaction product was measured at 570 nm using a multiplate ELISA reader (BioRad). The percentage of cell viability was calculated and plotted as a function of RA concentration.

MARK4 [5] = assay: MARK4 protein expression by western blot; type: cell-based, human; details: MDA-MB-231 cells, IC50 concentration, 48 h, immunoblotting
Procedure: MDA-MB-231 vehicle control or RA treated cells were lysed in RIPA cell lysis buffer (Thermo Fisher Scientific, USA). Total protein was isolated and quantified by Bicinchoninic acid assay kit. Approximately 30–40 μg of whole-cell protein was diluted with 6X Laemmli’s buffer, boiled for 3–5 min and resolved using 12% SDS-polyacrylamide electrophoresis under reducing conditions. The resolved polypeptides were transferred to polyvinylidene fluoride (PVDF) membrane using blotting and identified using protein-specific primary antibodies and horseradish peroxidase conjugated secondary antibodies. Luminol was used as a chemiluminescent substrate for HRP[56].

MDA-MB-231 cells [6] = assay: Cell apoptosis assay (Annexin-V/PI staining); type: cell-based, human; details: 72 h
Procedure: Apoptosis inducing properties of RA was studied using Annexin-V/PI staining as described previously[58],[60]. In brief, cells were treated with IC50 and 2 × IC50 doses of RA for 72 h at 37 °C, while control cells were treated with cell culture media only or vehicle control. After 72 h incubation, ~1.0–1.5 × 10^6 cells were collected, washed three times with PBS and stained using FITC labeled Annexin-V and PI (BD-Biosciences, USA). Stained cells were analyzed using BD LSR II Flow Cytometry Analyzer and FlowJo.

[7] = Binding constant (K), fluorescence quenching studies, temperature not given
[8] = van't Hoff plot, 288, 298 and 305 K

## O=c1oc2c(O)c(O)cc3c(=O)oc4c(O)c(O)cc1c4c23 [Ellagic Acid]
MARK4 [1]; [7]
  Kd: 9900 µM

## COc1cc(/C=C/C(=O)O)ccc1O [Ferulic Acid]
MARK4 [1]; fluorescence quenching studies, temperature not given
  binding constant (K): 50 M⁻¹

## O=c1c(O)c(-c2ccc(O)c(O)c2)oc2cc(O)cc(O)c12 [Quercetin]
MARK4 [1]; [7]
  Kd: 9760 µM

## O=C(/C=C/c1ccc(O)c(O)c1)O[C@H](Cc1ccc(O)c(O)c1)C(=O)O [Rosmarinic acid]
MARK4 [1]; 288 K
  Ksv (Stern-Volmer constant): 11.5 10^5 M^−1
  TΔS°: -12.0468 kcal/mol
  n (number of binding sites): 1.34
  Kq (bimolecular quenching rate constant): 4.25 10^14M^-1 s^-1
  ∆G: -8.956 kcal/mol
MARK4 [1]; 288 K, double log relation
  binding constant (K): 5e+06 M⁻¹
MARK4 [1]; 298 K
  Ksv (Stern-Volmer constant): 24.9 10^5 M^−1
  TΔS°: -12.4651 kcal/mol
  n (number of binding sites): 1.22
  Kq (bimolecular quenching rate constant): 9.22 10^14M^-1 s^-1
  ∆G: -8.538 kcal/mol
MARK4 [1]; 298 K, double log relation
  binding constant (K): 2e+06 M⁻¹
MARK4 [1]; 305 K
  Ksv (Stern-Volmer constant): 29.4 10^5 M^−1
  TΔS°: -12.7579 kcal/mol
  n (number of binding sites): 1.10
  Kq (bimolecular quenching rate constant): 10.88 10^14M^-1 s^-1
  ∆G: -8.245 kcal/mol
MARK4 [1]; 305 K, double log relation
  binding constant (K): 700000 M⁻¹
MARK4 [1]; [7]
  Kd: 0.1 µM
MARK4 [1]; K (binding constant), 288 K, modified Stern-Volmer
  Kd: 0.2 µM
MARK4 [1]; K (binding constant), 298 K, modified Stern-Volmer
  Kd: 0.5 µM
MARK4 [1]; K (binding constant), 305 K, modified Stern-Volmer
  Kd: 1.43 µM
MARK4 [1]; [8]
  ∆H: -21.003 kcal/mol
  ∆S: −41.82 calmol^−1K^−1
MARK4 [2]
  Kd: 0.227 µM
MARK4 [2]; ITC, 25 °C
  ∆S: −26.4 cal.mol^−1K^−1
MARK4 [3]
  IC50: 6.2 µM
Phosphorylation of tau
  phosphorylation of tau: decreases phosphorylation of tau
MDA-MB-231 cells [4]
  cell growth / viability: significantly inhibited the growth
A549 cells
  cell growth / viability: significantly inhibited the growth
MARK4 [5]
  protein expression level of MARK4: decreases the expression of MARK4
MDA-MB-231 cells [6]; MDA-MB-231, 2 × IC50 concentration
  apoptotic cells: 15.90%
MDA-MB-231 cells [6]; MDA-MB-231, IC50 concentration
  apoptotic cells: 9.0%

## COc1cc(C=O)ccc1O [Vanillin]
MARK4 [1]; [7]
  Kd: 6.21 µM

From paper PMC7316822 (Scientific Reports, 2020)
